From a melting point compilation (Tetko et al.; mined from patent text by program, amines drawn as free bases though some values may be those of a salt)

Compound | melting point
Cc1ccc2c(Cl)cc(S(=O)(=O)NCc3ccc(Cl)cc3)c(O)c2n1 | 158 to 161 °C
CNC(=O)Nc1ccc(C2=NN(C(=O)NC)C(C)Cc3cc4c(cc32)OCO4)cc1 (centres undefined) | 181 to 183 °C
CN(C)S(=O)(=O)c1ccc(Br)cc1OC(F)(F)F | 55 to 58 °C
CC(C(=O)Cl)c1ccc(C(=O)c2cccs2)cc1 (centres undefined) | 149 °C
COC(=O)c1cccc(NC(=O)NCC(=O)N(CC(=O)N2CCCC2)c2ccccc2C(=O)c2ccccc2)c1 | 189 to 194 °C
COc1cccnc1CSCCNC(=C[N+](=O)[O-])SC | 87.5 to 88.5 °C
Cc1ccccc1N1CCN(S(=O)(=O)c2ccc([N+](=O)[O-])cc2)CC1 | 176 to 178 °C
C[C@H](NS(=O)(=O)c1ccc(-c2c(C#N)c3cc(F)c(OC(F)F)cc3n2C2CCC2)nc1)C(F)(F)F | 172 to 175 °C
COCCOc1cc(C)nc(NC(=O)NS(=O)(=O)c2ccccc2Cl)n1 | 130 to 140 °C
NC(Cc1noc2ccccc12)=NO | 160 to 162 °C
O=C(ON1C(=O)CCC1=O)c1cccnc1 | 129 to 131 °C
CCOC(=O)COCCc1cc2cc(Cl)ccc2n1S(=O)(=O)c1ccccc1 | 60 to 62 °C
CC1CC2=CC(=O)CCC2C2C(F)CC3(C)C(=O)CCC3C12 (centres undefined) | 84.8 °C
Cc1nc2c(cc1C(=O)N(C(=N)N)C(=O)OC(C)(C)C)CCCCC2CO (centres undefined) | 98 to 100 °C
CS(=O)(=O)Nc1cc(C(O)CNCCCCCCOCC/C=C/c2ccc(F)cc2)ccc1O (centres undefined) | 79 to 80 °C
CC(=O)OCC1OC(n2cnc3c(Cl)nc(N)nc32)C(OC(C)=O)C1OC(C)=O (centres undefined) | 58 to 60 °C
COc1cccc(-c2nc(Cl)nc(Nc3ccc(O)cc3)n2)c1 | 164 °C
CS(=O)(=O)Nc1ccc(CCOc2ccc(C=C3SC(=O)NC3=O)cc2)cc1 | 130 °C
CCOC(=O)c1cc2cc(-c3ccc(C(C)O)cc3)ccc2o1 (centres undefined) | 108 to 109 °C
COP(=O)(OC)c1cc(O)c2c(=O)cc(-c3ccccc3)oc2c1 | 219 °C
C=CCc1cc(NC(C)=O)ccc1O | 82 to 85 °C
COc1cc(C2(O)CCN(C(=O)OC(C)(C)C)CC2)ccc1Nc1ncc2ccc(-c3ccccc3N(C)S(C)(=O)=O)n2n1 | 111 to 112 °C
COC(=O)c1cccc2[nH]c(-c3ccc(Cl)cc3)cc12 | 150 to 152 °C
CNc1nccn2c(Br)cnc12 | 139 °C
CC(C)C[C@H](NC(=O)c1c(F)cccc1F)C(=O)N[C@@H](C(C)C)[C@@H](O)c1c(-c2ccccc2)c1=O | 111 to 122 °C

Compound | melting point
CCC1(O)NC(=O)C=C1C (centres undefined) | 182 to 186 °C
COC(C)=C(Cl)C(=O)Nc1ccccc1 | 100 °C
COc1ccc(-c2cc(-c3ccccc3)[nH]c2C(=O)Nc2cccc(CC(=O)NO)c2)cc1 | 205 to 206 °C
CCOC(=O)c1cc(-n2c(=O)c(C)c(C)n(C)c2=O)ccc1Cl | 159 to 161 °C
Cc1nc2cccc(CNC(=O)OC(C)(C)C)c2c(=O)n1C1CCC(=O)NC1=O (centres undefined) | 206 to 208 °C
CC[C@H](C)C(OCc1ccccc1F)[C@H]1[C@H]([N+](=O)[O-])[C@H](c2ccccc2)N[C@@H]1C(=O)NCCC(=O)O (some centres undefined) | 136 to 138 °C
Cc1cc(C)cc(Sc2c(C(C)C)c(=O)[nH]c(=O)n2CCC2CC=CC2)c1 | 128 to 129 °C
CC(C)(C)C(=O)SC/C(=C/c1ccccc1)C(=O)O | 88 °C
CCc1nc2cnc3ccccc3c2n1CCCCN | 84.8 to 88.7 °C
O=C(O)c1ccc(S(=O)(=O)Oc2ccc(-c3ccc(-c4c(C(=O)c5ccccc5)oc5ccccc45)cc3)cc2C2CCCC2)cc1O | 105 to 108 °C
O=[N+]([O-])c1oc2c(CC(CO)CO)cccc2c1-c1ccccc1 | 166 to 168 °C
CN(Cc1ccccc1)C1c2ccccc2CC1O (centres undefined) | 64 °C
CS(=O)(=O)c1ccc(-c2cnn(-c3ccc(F)cc3)c(=O)c2C2CCCCC2)cc1 | 231 to 233 °C
COc1ccc(C#N)c(C=C(C)N(C)C)n1 | 103 to 104 °C
COc1c(C(=O)O)oc2c3ccccc3n(-c3ccccc3)c12 | 154 to 155 °C
C(=C\c1nc(COc2ccc(CCCCn3cncn3)cc2)co1)/c1ccccc1 | 94 to 95 °C
CC(C)NCC(O)c1ccc(N)c(C(F)(F)F)c1 (centres undefined) | 136 to 138 °C
CC(=O)N1c2ccccc2OP1c1ccccc1 (centres undefined) | 73 to 75 °C
Nc1cc(=O)n(Cc2cccc(C(F)(F)F)c2)[nH]1 | 130 °C
CSc1nc2ccc(Cl)cc2c(-c2ccccc2)c1N | 115 to 117 °C
CCCCCCCOC(=O)CON=c1c2nccc3cccc(c32)n2cccc12 | 98 °C
CCCCc1ncc(/C=C(\Cc2cccs2)C(=O)O)n1Cc1ccccc1OC | 186 to 187 °C
Cc1ccc(C(=O)Nc2ccc(-n3ccnc3C)cc2C(F)(F)F)cc1Nc1nccc(-c2cccnc2)n1 | 154 to 163 °C
O=c1[nH]c(=O)n2c(c1-c1ccccc1)SCCC2 | > 300 °C
N#CCCc1cccc([N+](=O)[O-])c1 | 86 to 88 °C

Compound | melting point
CCCc1nc2ccc(NS(C)(=O)=O)cc2n1Cc1ccccc1Cl | 191 to 193 °C
C#CCOCc1c(C)nc2c(OCc3ccccc3C#N)cccn12 | 144 °C
COc1ccc(-c2csnn2)cc1C=O | 156 to 157 °C
Clc1ccc(C2CN(C(c3ccccc3)c3ccccc3)C2)cc1 | 82 °C
Cc1ccccc1C(=O)c1cc2c(cc1O)CCC2 | 61 to 62 °C
C[C@@H]1SC(N)=N[C@H]1Cc1ccccc1 | 89 °C
OCc1ccc2cc(Cl)ccc2c1 | 134 to 137 °C
O=C(Nc1ccc(OCCN2CCOCC2)c2ccccc12)c1cc(F)cc(OC2CCOCC2)c1 | 75 to 77 °C
O=C(C=Cc1ccc(-c2ccc(Cl)cc2)cc1)Nc1ccc(CN2CCCCC2)cc1 | 265 to 270 °C
CC(=O)Oc1c(C2CCN(CCCCNC(=O)c3ccc(-c4ccc(C#N)cc4)cc3)CC2)ccc2c1CCCC2 | 140 to 150 °C
COc1ccc(C=CC(=O)CC(=O)C=Cc2ccc(OC)c(O)c2)cc1O | 190 to 192 °C
CCCCCCCCCC(=O)Nc1ccc(S(=O)(=O)Nc2nnc(C(=O)OCC)s2)cc1 | 101 to 102 °C
CS(=O)(=O)N(Cc1ccc(C(F)(F)F)cc1)CC(O)(Cn1cncn1)c1ccc(Cl)cc1Cl (centres undefined) | 139 to 141 °C
O=C1CCc2c(OCCCl)cccc21 | 56 to 58 °C
COCCOC1C(O)C(CO)OC1n1cnc2c(N)nc(N)nc21 (centres undefined) | 152 to 154 °C
CCOCC1OC(n2c(Cl)nc3cc(Cl)c(Cl)cc32)C(O)C1O (centres undefined) | 88 to 90 °C
CCOCc1nc2c(N)nc3cccnc3c2n1CCCCS(=O)(=O)NC | 148 to 150 °C
CC(C)(C)OC(=O)N1CCN(c2cccc([N+](=O)[O-])c2)CC1 | 82 to 92 °C
Cc1ccc(CN(C)C(=O)C23CC4CC(CC(C4)C2)C3)cc1 | 93 to 95 °C
CSc1nnc(-c2ccc(OCC(O)CNCCOc3ccc(O)c(C(N)=O)c3)cc2)n1C (centres undefined) | 123 to 125 °C
Cc1ccc(S(=O)(=O)c2nsc3nc4ccccc4n23)cc1 | 231 to 234 °C
COC(C(=O)O)c1c(Cl)cccc1Cl (centres undefined) | 95 to 96 °C
CCc1nc2c(N)nc3cc(OCCNC(=O)OC(C)(C)C)ccc3c2n1CC1CCOCC1 | 200 to 201 °C
N#Cc1cnc(Nc2ccc(OCCn3cnnc3)cc2)nc1-c1cccs1 | 228 °C
Cc1cc(C)c(C(=O)c2ccc(Cl)cc2)c(C)c1 | 65.5 to 66.5 °C

Compound | melting point
CSC(=NC(=O)COC(C)=O)N(C)N=Cc1ccccc1 | 115 to 117 °C
O=C(O)c1ccc(C(c2ccc(C(=O)O)cc2)(c2ccc(C(=O)O)cc2)C(F)(F)F)cc1 | 366 to 367 °C
CS(=O)(=O)OC(c1ccc(C(OS(C)(=O)=O)(C(F)(F)F)C(F)(F)F)cc1)(C(F)(F)F)C(F)(F)F | 151 °C
Cc1nnc2c(Cl)nc([N+](=O)[O-])c(N)n12 | 220 °C
COc1cc2c(cc1O)CCN(Cc1ccc(OC)c(OC)c1OC)C2 | 65 to 66 °C
CCCC(=O)CCCCCC(=O)N[C@@H](C)C(=O)OC | 51 to 54 °C
CN(C)c1ccc2nc(N)c(C#N)c(NCc3ccccc3)c2c1 | 265 °C
CCN1CCN(c2cccc3ccc(NC(=O)c4ccc(Cl)cc4)cc23)CC1 | 173 to 174 °C
COc1cc(C(F)(F)F)sc1CN1C(=O)C2(COc3cc4c(cc32)OCO4)c2ccccc21 (centres undefined) | 178 to 180 °C
CC(C)(C)C(O)CN1C(=O)C(N)C(=O)N(c2ccccc2F)c2ccccc21 (centres undefined) | 104 to 105 °C
O=C(Nc1ccc(CC2CCN(S(=O)(=O)c3ccccc3)CC2)cc1)C(F)(F)F | 194 to 195 °C
S=c1sscc1-c1ccccc1 | 122 to 124 °C
CCCCCN1C(=O)C(=O)c2cc(SCCCc3ccc(C(=O)O)cc3)ccc21 | 145 to 146 °C
CCCOc1ccccc1-c1ncc(C(=O)NC)c(=O)[nH]1 | 190 to 191 °C
Cc1cc(-c2ccc(C(F)(F)F)cc2)cn2c(C(=O)O)cnc12 | 211 °C
Cc1ccc(S(=O)(=O)n2ccc3cc(C#N)ccc32)cc1 | 129 to 131 °C
COC(OC)c1c(SC(F)(F)F)c(C#N)nn1-c1c(Cl)cc(C(F)(F)F)cc1Cl | 93 °C
COC(=O)c1ccc(C=C2CCn3c2nc2cc(N)ccc2c3=O)cc1 | 292 to 295 °C
CCN(CC)C(=O)c1ccc(C(=C2CCNCC2)c2cccc3cccnc23)cc1 | > 170 °C
O=C(OC1=CC(O)=CC(C=Cc2ccc(O)cc2)(C(=O)c2cc(O)c(O)c(O)c2)C1)c1cc(O)c(O)c(O)c1 (centres undefined) | 210 to 212 °C
CCOC(=O)c1c(C(C)C)c2ccccn2c1-c1ccc(F)cc1 | 51 to 52 °C
COc1cn(-c2ccc(-n3cccn3)cc2F)nc(C(C)=O)c1=O | 159 to 161 °C
COc1ccc(-n2nc(CBr)cc2-c2ccc(C)cc2)cc1 | 119 to 121 °C
COC(=O)c1cn2c(n1)COc1ccc(NC(C)=O)cc1-2 | 216 to 219 °C
